The test system of one assay is MCF7. Nature of the assay: Antiproliferative activity against human MCF7 cells after 72 hrs by MTS-PMS assay. Format: functional, cell-based. The conditions noted are these: MCF7, 72 h. A general note: Formazan colour is commonly taken as a measure of viable cells.
The next assay relates to SK-BR-3. In words: Antiproliferative activity against human SKBR3 cells after 72 hrs by MTS-PMS assay. It is filed as functional, cell-based. The following applies: SK-BR-3, 72 h.

The term IC50 denotes the concentration that gives 50% inhibition. High values mean lower potency, low ones higher potency. For the molecule `COc1cc(/C=C/c2cc(/C=C/c3ccc(O)c(OC)c3)[nH]n2)ccc1O` [CURCUMIN PYRAZOLE], the IC50 with MCF7 is 4.19 µM; in the assay on SK-BR-3, 0.258 µM.
In the same order, the values of `CCOC(=O)CCc1c(/C=C/c2ccc(O)c(OC)c2)noc1/C=C/c1ccc(O)c(OC)c1` are 13.2 µM and 13.9 µM.
In the same order, the values of `CCOC(=O)/C=C/C(C(=O)/C=C/c1ccc(OC)c(OC)c1)C(=O)/C=C/c1ccc(OC)c(OC)c1` are 1.28 µM and 1.96 µM.
Take `COC(=O)/C=C/C(C(=O)/C=C/c1ccc(OC)c(OC)c1)C(=O)/C=C/c1ccc(OC)c(OC)c1`: the IC50 is 0.512 µM in the assay with MCF7 and 0.564 µM in the assay with SK-BR-3.
For `COc1ccc(/C=C/c2noc(/C=C/c3ccc(OC)c(OC)c3)c2C)cc1OC`, the IC50 in the assay with MCF7 was found to be 55.7 µM; in the assay with SK-BR-3 it was 42.5 µM.
As for `CCOC(=O)CCc1c(/C=C/c2ccc(OC)c(OC)c2)n[nH]c1/C=C/c1ccc(OC)c(OC)c1`, the values for the IC50 in the assay on MCF7 and in the assay on SK-BR-3 were 10.1 µM and 11.7 µM, respectively.
Regarding `COc1ccc(/C=C/c2n[nH]c(/C=C/c3ccc(OC)c(OC)c3)c2/C=C/C(N)=O)cc1OC`, the IC50 in the assay on MCF7 was 39.9 µM; in the assay with SK-BR-3, 52.6 µM.
In the same order, the values of `COc1ccc(/C=C/C(=O)CC(=O)/C=C/c2ccc(OC)c(OC)c2)cc1OC` [TETRAMETHOXYCURCUMIN] are 1.07 µM and 0.955 µM.
In the case of `COc1ccc(/C=C/c2cc(/C=C/c3ccc(OC)c(OC)c3)on2)cc1OC`, the values for the IC50 in the assay with MCF7 and in the assay on SK-BR-3 were 59.5 µM and over 100 µM, respectively.
Taken in the same sequence, the figures for `COc1ccc(/C=C/C(=O)C(/C=C/C(N)=O)C(=O)/C=C/c2ccc(OC)c(OC)c2)cc1OC` were 5.35 µM and 9.83 µM.
In the same order, the values of `COc1cc(/C=C/C(=O)CC(=O)/C=C/c2ccc(O)c(OC)c2)ccc1O` [CURCUMIN] are 5.58 µM and 2.11 µM.
In the same order, the values of `COC(=O)/C=C/c1c(/C=C/c2ccc(OC)c(OC)c2)n[nH]c1/C=C/c1ccc(OC)c(OC)c1` are 49.5 µM and over 100 µM.
With `COc1ccc(/C=C/c2n[nH]c(/C=C/c3ccc(OC)c(OC)c3)c2C)cc1OC`, the IC50 was 8.16 µM in the assay with MCF7 and over 100 µM with SK-BR-3.
For the molecule `COc1ccc(/C=C/C(=O)C(C)C(=O)/C=C/c2ccc(OC)c(OC)c2)cc1OC`, the IC50 with MCF7 was 1.09 µM; in the assay on SK-BR-3, 1.02 µM.
In the same order, the values of `CCOC(=O)CCC(C(=O)/C=C/c1ccc(OC)c(OC)c1)C(=O)/C=C/c1ccc(OC)c(OC)c1` are over 100 µM and over 100 µM.
Taken in the same sequence, the figures for `COc1cc(/C=C/c2cc(/C=C/c3ccc(O)c(OC)c3)on2)ccc1O` were 1.76 µM and 4 µM.
Taken in the same sequence, the figures for `CCOC(=O)CCc1c(/C=C/c2ccc(OC)c(OC)c2)noc1/C=C/c1ccc(OC)c(OC)c1` were over 100 µM and over 100 µM.
As for `COc1ccc(/C=C/c2n[nH]c(/C=C/c3ccc(OC)c(OC)c3)c2/C=C/CO)cc1OC`, the IC50 with MCF7 and with SK-BR-3 was over 100 µM in each case.
As for `COc1ccc(/C=C/C(=O)C(/C=C/CO)C(=O)/C=C/c2ccc(OC)c(OC)c2)cc1OC`, the IC50 worked out at 0.796 µM in the assay on MCF7 and 1.24 µM in the assay with SK-BR-3.
As for `COc1ccc(/C=C/c2cc(/C=C/c3ccc(OC)c(OC)c3)[nH]n2)cc1OC`, the IC50 in the assay on MCF7 came out at 12.7 µM; in the assay with SK-BR-3 it was 1.58 µM.
Taken in the same sequence, the figures for `CCOc1ccc(/C=C/c2n[nH]c(/C=C/c3ccc(OCC)c(OC)c3)c2/C=C/C(=O)OC)cc1OC` were 11.4 µM and 5.99 µM.
Taken in the same sequence, the figures for `CCOC(=O)CCc1c(/C=C/c2ccc(O)c(OC)c2)n[nH]c1/C=C/c1ccc(O)c(OC)c1` were 6.01 µM and 5.6 µM.
Turning to `CCOC(=O)CCC(C(=O)/C=C/c1ccc(O)c(OC)c1)C(=O)/C=C/c1ccc(O)c(OC)c1`, the 50% inhibitory concentration (IC50) in the assay on MCF7 amounted to 1.96 µM; in the assay on SK-BR-3, 4.38 µM.
